The test has as its target fascin 1 (Homo sapiens, UniProt Q16658). Put plainly: X-ray co-crystal structure. The test is classed as biochemical.

pIC50: −log10 of the molar value.

For orientation: pIC50 means −log10 of the IC50, conventionally taken in molar units. Lower therefore signals a high IC50.

As to `Cc1cnoc1C(=O)Nc1nn(Cc2ccc(C(F)(F)F)cc2)c2ccccc12` [NP-G2-029, 4-methyl-N-(1-(4-(trifluoromethyl)benzyl)-1H-indazol-3-yl)isoxazole-5-carboxamide], the negative-log IC50 (pIC50) was around 6.74.

The values are drawn from article PMC5916032 (Journal of molecular biology, 2018).
